CC(C)(c1ccc(O)cc1)c1ccc(O)cc1
solubility (mole fraction)
Conditions	273.15 K	278.15 K	283.15 K	288.15 K	293.15 K	298.15 K	303.15 K	308.15 K	313.15 K
in 1,4-dioxane	–	–	–	0.205	0.224	0.245	0.264	0.285	0.307
in DMF	0.298	0.308	0.324	0.342	0.361	0.383	0.409	0.43	0.452
in acetone	0.293	0.301	0.311	0.321	–	–	–	–	–
in acetonitrile	0.135	0.141	0.15	0.16	0.169	0.176	0.185	0.196	0.207
in cyclohexanone	0.0936	0.111	0.126	0.142	0.158	0.176	0.195	0.215	0.235
in ethanol	0.21	0.215	0.221	0.227	0.233	0.24	0.246	0.253	0.26
in ethyl acetate	0.235	0.237	0.24	0.243	0.246	0.251	0.255	0.26	0.265
in formamide	–	0.14	0.151	0.164	0.178	0.193	–	0.231	0.252
in isopropanol	0.0503	0.0603	0.0719	0.0858	0.097	0.111	0.123	0.139	0.153
in methanol	0.187	0.19	0.194	0.198	0.202	0.207	0.212	0.217	0.223
in methyl acetate	0.236	0.237	0.239	0.241	0.246	0.249	0.253	0.257	0.261
in n-butanol	0.0748	0.0833	0.0942	0.108	0.12	0.136	0.149	0.163	0.181
in n-propanol	0.176	0.18	0.188	0.195	0.2	0.207	0.214	0.22	0.225
in sec-butanol	0.0342	0.0397	0.0472	0.0566	0.0654	0.0735	0.083	0.093	0.104
